# Measurements as given in patent publication US10294234B2, “HIV inhibitor compounds” (priority 2017, dated 2019).
# Like-named read-outs stand apart in the source and are kept apart here.
# Columns and labels:
# [1] = tested on: HIV-1 (IIIB) in MT-4 cells; experiment: MT-4 HIV assay; type: cell-based; details: Human immunodeficiency virus 1, MT4, 120 h; HIV-1 (IIIB), MT-4 cells, 5 days, Cell Titer Glo; read-out: EC50
# Outline: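 MT-4 cells infected with HIV-1 IIIB (1:250 stock dilution) were incubated with 1:3 serially diluted compounds in RPMI with 10% FBS for 5 days at 37 °C. Cell Titer Glo luminescence was the readout. Plates included mock-infected wells, no-drug wells and 5 uM AZT controls.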
# [2] = Procedure: Liver Microsomal Stability Protocol
# Test compounds and one control compound (verapamil) were tested in 3 different species in duplicate sets.
# Test compound concentration: 1 uM; Protein concentration: 0.5 mg/mL (for dog, rat, and human liver microsomes); Cofactor: NADPH-Regenerating system (NRS) solution; Time-points: 2, 12, 25, 45, and 65 minutes.
# Reaction composition (in each incubation well) contains:
# After plates were vortexed, they were centrifuged for 30 minutes to remove proteins. About 100 μL supernatant was removed to a new plate and diluted with 150 μL water. About 20 μL of the mixture was injected into LC/MS/MS system to monitor the compound's response. In vitro measured t1/2 was used to calculate Clint values.
# [3] = human liver microsomes 0.5 mg/mL, 1 uM compound, NADPH
# [4] = rat liver microsomes 0.5 mg/mL, 1 uM compound, NADPH
"Human Pred Cl. [2, 3]","Rat. Pred. Cl. [2, 4]",Structure (SMILES),EC50 [1],"Human Pred Cl. ([2]; human, microsomes)","Rat. Pred. Cl. ([2]; rat, microsomes)"
<0.11 L/H/kg,0.59 L/H/kg,"COC(=O)N[C@H](C(=O)N[C@@H](Cc1ccc(C#Cc2cnc(N3C[C@H]4C[C@@H]3CN4C3COC3)nc2)cc1)[C@@H](O)CN(Cc1c(F)cc(-c2ccn(C(F)F)n2)cc1F)NC(=O)[C@@H](NC(=O)OC)C(C)(C)C(F)(F)F)C(C)(C)C(F)(F)F [Example 32, Methyl ((5S,8S,9S,14S)-11-(4-(1-(difluoromethyl)-1H-pyrazol-3-yl)-2,6-difluorobenzyl)-16,16,16-trifluoro-9-hydroxy-15,15-dimethyl-8-(4-((2-((1R,4R)-5-(oxetan-3-yl)-2,5-diazabicyclo[2.2.1]heptan-2-yl)pyrimidin-5-yl)ethynyl)benzyl)-3,6,13-trioxo-5-(1,1,1-trifluoro-2-methylpropan-2-yl)-2-oxa-4,7,11,12-tetraazahexadecan-14-yl)carbamate]",2.65 nM,–,–
–,–,"CCN1C2CCC1CN(c1ccc(C#Cc3ccc(C[C@H](NC(=O)[C@@H](NC(=O)OC)C(C)(C)C(F)(F)F)[C@@H](O)CN(Cc4c(F)cc(-c5cnn(C(F)F)c5)cc4F)NC(=O)[C@@H](NC(=O)OC)C(C)(C)C(F)(F)F)cc3)cn1)C2 [Example 167, Methyl ((5S,8S,9S,14S)-11-(4-(1-(difluoromethyl)-1H-pyrazol-4-yl)-2,6-difluorobenzyl)-8-(4-((6-(8-ethyl-3,8-diazabicyclo[3.2.1]octan-3-yl)pyridin-3-yl)ethynyl)benzyl)-16,16,16-trifluoro-9-hydroxy-15,15-dimethyl-3,6,13-trioxo-5-(1,1,1-trifluoro-2-methylpropan-2-yl)-2-oxa-4,7,11,12-tetraazahexadecan-14-yl)carbamate]",4.97 nM,<0.11 L/H/kg,–
–,–,"COC(=O)N[C@H](C(=O)N[C@@H](Cc1ccc(C#Cc2ccc(N3CC4CCC(C3)N4C3COC3)nc2)cc1)[C@@H](O)CN(Cc1c(F)cc(-c2nnc(C3CC3)o2)cc1F)NC(=O)[C@@H](NC(=O)OC)C(C)(C)C(F)(F)F)C(C)(C)C(F)(F)F [Example 129, Methyl ((5S,8S,9S,14S)-11-(4-(5-cyclopropyl-1,3,4-oxadiazol-2-yl)-2,6-difluorobenzyl)-16,16,16-trifluoro-9-hydroxy-15,15-dimethyl-8-(4-((6-(8-(oxetan-3-yl)-3,8-diazabicyclo[3.2.1]octan-3-yl)pyridin-3-yl)ethynyl)benzyl)-3,6,13-trioxo-5-(1,1,1-trifluoro-2-methylpropan-2-yl)-2-oxa-4,7,11,12-tetraazahexadecan-14-yl)carbamate]",3.62 nM,<0.11 L/H/kg,–
–,–,"COC(=O)N[C@H](C(=O)N[C@@H](Cc1ccc(C#Cc2ccc(N3CC4CCC(C3)N4C3COC3)nc2)cc1)[C@@H](O)CN(Cc1c(F)cc(-c2ccn(CC(C)(C)O)n2)cc1F)NC(=O)[C@@H](NC(=O)OC)C(C)(C)C(F)(F)F)C(C)(C)C(F)(F)F [Example 16, Methyl ((5S,8S,9S,14S)-11-(2,6-difluoro-4-(1-(2-hydroxy-2-methylpropyl)-1H-pyrazol-3-yl)benzyl)-16,16,16-trifluoro-9-hydroxy-15,15-dimethyl-8-(4-((6-(8-(oxetan-3-yl)-3,8-diazabicyclo[3.2.1]octan-3-yl)pyridin-3-yl)ethynyl)benzyl)-3,6,13-trioxo-5-(1,1,1-trifluoro-2-methylpropan-2-yl)-2-oxa-4,7,11,12-tetraazahexadecan-14-yl)carbamate]",4.64 nM,<0.11 L/H/kg,0.45 L/H/kg
0.92 L/H/kg,0.45 L/H/kg,"COC(=O)N[C@H](C(=O)NN(Cc1c(F)cc(-c2ccn(C(F)F)n2)cc1F)C[C@H](O)[C@H](Cc1ccc(-c2cnn(C(F)F)c2)cc1)NC(=O)[C@@H](NC(=O)OC)C(C)(C)C(F)(F)F)C(C)(C)C [Example 218, Methyl ((5S,8S,9S,14S)-11-(4-(1-(difluoromethyl)-1H-pyrazol-3-yl)-2,6-difluorobenzyl)-8-(4-(1-(difluoromethyl)-H-pyrazol-4-yl)benzyl)-9-hydroxy-15,15-dimethyl-3,6,13-trioxo-5-(1,1,1-trifluoro-2-methylpropan-2-yl)-2-oxa-4,7,11,12-tetraazahexadecan-14-yl)carbamate]",2.99 nM,–,–
–,–,"COC(=O)N[C@H](C(=O)N[C@@H](Cc1ccc(C#Cc2ccc(N3C4CC3CN(C3COC3)C4)nc2)cc1)[C@@H](O)CN(Cc1c(F)cc(-c2cnn(C(F)F)c2)cc1F)NC(=O)[C@@H](NC(=O)OC)C(C)(C)C(F)(F)F)C(C)(C)C(F)(F)F [Example 59, Methyl ((5S,8S,9S,14S)-11-(4-(1-(difluoromethyl)-1H-pyrazol-4-yl)-2,6-difluorobenzyl)-16,16,16-trifluoro-9-hydroxy-15,15-dimethyl-8-(4-((6-(3-(oxetan-3-yl)-3,6-diazabicyclo[3.1.1]heptan-6-yl)pyridin-3-yl)ethynyl)benzyl)-3,6,13-trioxo-5-(1,1,1-trifluoro-2-methylpropan-2-yl)-2-oxa-4,7,11,12-tetraazahexadecan-14-yl)carbamate]",3.38 nM,0.6 L/H/kg,0.83 L/H/kg
0.18 L/H/kg,<0.18 L/H/kg,"CC(C)([C@H](NC(=O)OC1CC1)C(=O)N[C@@H](Cc1ccc(-c2cnn(C(F)F)c2)cc1)[C@@H](O)CN(Cc1c(F)cc(-c2cnn(C(F)F)c2)cc1F)NC(=O)[C@@H](NC(=O)OC1CC1)C(C)(C)C(F)(F)F)C(F)(F)F [Example 210, Cyclopropyl ((S)-1-(2-((2S,3S)-3-((S)-2-((cyclopropoxycarbonyl)amino)-4,4,4-trifluoro-3,3-dimethylbutanamido)-4-(4-(1-(difluoromethyl)-1H-pyrazol-4-yl)phenyl)-2-hydroxybutyl)-2-(4-(1-(difluoromethyl)-1H-pyrazol-4-yl)-2,6-difluorobenzyl)hydrazinyl)-4,4,4-trifluoro-3,3-dimethyl-1-oxobutan-2-yl)carbamate]",15 nM,–,–
–,–,"COC(=O)N[C@H](C(=O)NN(Cc1ccc(-c2cnn(C(F)F)c2)cc1)C[C@H](O)[C@H](Cc1ccc(C#Cc2ccc(N3CC4CCC(C3)N4C3COC3)nc2)cc1)NC(=O)[C@@H](NC(=O)OC)C(C)(C)C(F)(F)F)C(C)(C)C [Example 243, methyl ((5S,8S,9S,14S)-11-(4-(1-(difluoromethyl)-1H-pyrazol-4-yl)benzyl)-9-hydroxy-15,15-dimethyl-8-(4-((6-(8-(oxetan-3-yl)-3,8-diazabicyclo[3.2.1]octan-3-yl)pyridin-3-yl)ethynyl)benzyl)-3,6,13-trioxo-5-(1,1,1-trifluoro-2-methylpropan-2-yl)-2-oxa-4,7,11,12-tetraazahexadecan-14-yl)carbamat]",5.32 nM,–,–
–,–,"CC(C)([C@H](NC(=O)C1CC1)C(=O)N[C@@H](Cc1ccc(-c2cnn(C(F)F)c2)cc1)[C@@H](O)CN(Cc1c(F)cc(-c2ccn(C(F)F)n2)cc1F)NC(=O)[C@@H](NC(=O)C1CC1)C(C)(C)C(F)(F)F)C(F)(F)F [Example 213, N—((S)-1-(2-((2S,3S)-3-((S)-2-(cyclopropanecarboxamido)-4,4,4-trifluoro-3,3-dimethylbutanamido)-4-(4-(1-(difluoromethyl)-1H-pyrazol-4-yl)phenyl)-2-hydroxybutyl)-2-(4-(1-(difluoromethyl)-1H-pyrazol-3-yl)-2,6-difluorobenzyl)hydrazinyl)-4,4,4-trifluoro-3,3-dimethyl-1-oxobutan-2-yl)cyclopropanecarboxamide]",4.86 nM,–,–
–,–,"COC(=O)N[C@H](C(=O)N[C@@H](Cc1ccc(C#Cc2cnc(N3C[C@H]4C[C@@H]3CN4C3COC3)nc2)cc1)[C@@H](O)CN(Cc1ccc(-c2ccn(C3CC3)n2)cc1)NC(=O)[C@@H](NC(=O)OC)C(C)(C)C(F)(F)F)C(C)(C)C(F)(F)F [Example 30, methyl ((5S,8S,9S,14S)-11-(4-(1-cyclopropyl-1H-pyrazol-3-yl)benzyl)-16,16,16-trifluoro-9-hydroxy-15,15-dimethyl-8-(4-((2-((1R,4R)-5-(oxetan-3-yl)-2,5-diazabicyclo[2.2.1]heptan-2-yl)pyrimidin-5-yl)ethynyl)benzyl)-3,6,13-trioxo-5-(1,1,1-trifluoro-2-methylpropan-2-yl)-2-oxa-4,7,11,12-tetraazahexadecan-14-yl)carbamate]",4.44 nM,–,–
–,–,"CC(=O)N[C@H](C(=O)N[C@@H](Cc1ccc(-c2cnn(C(F)F)c2)cc1)[C@@H](O)CN(Cc1c(F)cc(-c2cnn(C(F)F)c2)cc1F)NC(=O)[C@@H](NC(C)=O)C(C)(C)C(F)(F)F)C(C)(C)C(F)(F)F [Example 217, (S)-2-acetamido-N-((2S,3S)-4-(2-((S)-2-acetamido-4,4,4-trifluoro-3,3-dimethylbutanoyl)-1-(4-(1-(difluoromethyl)-1H-pyrazol-4-yl)-2,6-difluorobenzyl)hydrazinyl)-1-(4-(1-(difluoromethyl)-1H-pyrazol-4-yl)phenyl)-3-hydroxybutan-2-yl)-4,4,4-trifluoro-3,3-dimethylbutanamide]",113 nM,–,–
